# Laboratory results: ChEMBL document CHEMBL5725270, “Substituted imidazopyridazines” (2016)
# Assay: Time-Resolved Fluorescence Resonance Energy Transfer (TR-FRET) Assay: The human kinase Mps-1 phosphorylates a biotinylated substrate peptide. Detection of the phosphorylated product is achieved by time-resolved fluorescence resonance energy transfer (TR-FRET) from Europium-labelled anti-phospho-Serine/Threonine antibody as donor to streptavidin labelled with cross-linked allophycocyanin (SA-XLent) as acceptor. Compounds are tested for their inhibition of the kinase activity.N-terminally GST-tagged human full length recombinant Mps-1 kinase (purchased from Invitrogen, Karslruhe, Germany, cat. no PV4071) was used. […] The concentration of Mps-1 in the assay was adjusted to the activity of the enzyme lot and was chosen appropriate to have the assay in the linear range, typical enzyme concentrations were in the range of about 1 nM (final conc. in the 5 ul assay volume).
row,Structure (SMILES),IC50
1,Cc1cc(-c2cnc3c(NCCC(F)(F)F)cc(C(C)(O)c4cccc(F)c4O)nn23)ccc1C(=O)NC1CC1 (configuration not stated),0.3 nM
2,Cc1cc(-c2cnc3c(NCCC(F)(F)F)cc(C4(c5cc(F)ccc5F)CC4)nn23)ccc1C(=O)NC1CC1,0.8 nM
3,C=C(c1cccc(F)c1)c1cc(NCCC(F)(F)F)c2ncc(-c3ccc(C(=O)NC4CC4)c(C)c3)n2n1,0.3 nM
4,Cc1cc(-c2cnc3c(NCCC(F)(F)F)cc(C(=O)c4cccc(F)c4F)nn23)ccc1C(=O)NC1CC1,0.6 nM
5,C=C(c1ccc(OC)cc1)c1cc(NCCC(F)(F)F)c2ncc(-c3ccc(C(=O)NC4CC4)c(C)c3)n2n1,0.5 nM
6,COc1ccc(C(=O)c2cc(NCCC(F)(F)F)c3ncc(-c4ccc(C(=O)NC5CC5)c(C)c4)n3n2)cc1,1.2 nM
7,Cc1cc(-c2cnc3c(NCCC(F)(F)F)cc(C(=O)c4cc(F)ccc4F)nn23)ccc1C(=O)NC1CC1,0.6 nM
8,Cc1cc(-c2cnc3c(NCCC(F)(F)F)cc(C4(c5cccc(F)c5)CC4)nn23)ccc1C(=O)NC1CC1,0.9 nM
9,C=C(c1cc(NCCC(F)(F)F)c2ncc(-c3ccc(C(=O)NC4CC4)c(C)c3)n2n1)c1cc(F)ccc1O,0.4 nM
10,C=C(c1cc(NCCC(F)(F)F)c2ncc(-c3ccc(C(=O)NC4CC4)c(C)c3)n2n1)c1cccc(F)c1F,0.4 nM
11,Cc1cc(-c2cnc3c(NCCC(F)(F)F)cc(C(F)c4cccc(F)c4)nn23)ccc1C(=O)NC1CC1 (configuration not stated),0.7 nM
12,Cc1cc(-c2cnc3c(NCCC(F)(F)F)cc(C(O)c4cc(F)ccc4F)nn23)ccc1C(=O)NC1CC1 (configuration not stated),0.3 nM
13,COc1cccc(C(=O)c2cc(NCCC(F)(F)F)c3ncc(-c4ccc(C(=O)NC5CC5)c(C)c4)n3n2)c1,0.5 nM
14,Cc1cc(-c2cnc3c(NCCC(F)(F)F)cc(C(F)(F)c4cccc(F)c4F)nn23)ccc1C(=O)NC1CC1,1.5 nM
15,C=C(c1cc(NCCC(F)(F)F)c2ncc(-c3ccc(C(=O)NC4CC4)c(C)c3)n2n1)c1cc(F)ccc1F,0.6 nM
16,C=C(c1cccc(OC)c1)c1cc(NCCC(F)(F)F)c2ncc(-c3ccc(C(=O)NC4CC4)c(C)c3)n2n1,0.8 nM
17,Cc1cc(-c2cnc3c(NCCC(F)(F)F)cc(C(F)(F)c4cc(F)ccc4F)nn23)ccc1C(=O)NC1CC1,0.5 nM
